In PubChem BioAssay (NCI):
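Interpolation was linear, between the two tested concentrations surrounding the appropriate level; five concentrations were tested over 48 hours in 96-well plates. TGI marks complete inhibition of growth.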

Tests used:
Assay in all cases: growth of human tumour cells (NCI), 48 h
786-0 renal = system: 786-0 renal
A498 renal = system: A498 renal
A549 NSCLC = system: A549 NSCLC
ACHN renal = system: ACHN renal
CAKI-1 renal = system: CAKI-1 renal
CCRF-CEM leukemia = system: CCRF-CEM leukemia
COLO 205 colon = system: COLO 205 colon
DLD-1 colon = system: DLD-1 colon
DMS 114 small cell lung = system: DMS 114 small cell lung
DMS 273 small cell lung = system: DMS 273 small cell lung
EKVX NSCLC = system: EKVX NSCLC
HCC-2998 colon = system: HCC-2998 colon
HCT-116 colon = system: HCT-116 colon
HCT-15 colon = system: HCT-15 colon
HL-60(TB) leukemia = system: HL-60(TB) leukemia
HOP-18 NSCLC = system: HOP-18 NSCLC
HOP-92 NSCLC = system: HOP-92 NSCLC
HT29 colon = system: HT29 colon
IGROV1 ovarian = system: IGROV1 ovarian
K-562 leukemia = system: K-562 leukemia
KM12 colon = system: KM12 colon
KM20L2 colon = system: KM20L2 colon
LOX IMVI melanoma = system: LOX IMVI melanoma
LXFL 529 NSCLC = system: LXFL 529 NSCLC
M14 melanoma = system: M14 melanoma
M19-MEL melanoma = system: M19-MEL melanoma
MALME-3M melanoma = system: MALME-3M melanoma
MOLT-4 leukemia = system: MOLT-4 leukemia
NCI-H226 lung = system: NCI-H226 lung
NCI-H23 lung = system: NCI-H23 lung
NCI-H522 lung = system: NCI-H522 lung
OVCAR-3 ovarian = system: OVCAR-3 ovarian
OVCAR-4 ovarian = system: OVCAR-4 ovarian
OVCAR-5 ovarian = system: OVCAR-5 ovarian
OVCAR-8 ovarian = system: OVCAR-8 ovarian
RPMI-8226 leukemia = system: RPMI-8226 leukemia
RXF 393 renal = system: RXF 393 renal
RXF-631 renal = system: RXF-631 renal
SF-268 CNS = system: SF-268 CNS
SF-295 CNS = system: SF-295 CNS
SF-539 CNS = system: SF-539 CNS
SK-MEL-2 melanoma = system: SK-MEL-2 melanoma
SK-MEL-28 melanoma = system: SK-MEL-28 melanoma
SK-MEL-5 melanoma = system: SK-MEL-5 melanoma
SK-OV-3 ovarian = system: SK-OV-3 ovarian
SN12C renal = system: SN12C renal
SNB-19 CNS = system: SNB-19 CNS
SNB-75 CNS = system: SNB-75 CNS
SNB-78 CNS = system: SNB-78 CNS
SW-620 colon = system: SW-620 colon
TK-10 renal = system: TK-10 renal
U251 CNS = system: U251 CNS
UACC-257 melanoma = system: UACC-257 melanoma
UACC-62 melanoma = system: UACC-62 melanoma
UO-31 renal = system: UO-31 renal
HOP-62 NSCLC = system: HOP-62 NSCLC
NCI-H460 lung = system: NCI-H460 lung
SR leukemia = system: SR leukemia

Measured: TGI

CC12OC3(C)OC(=O)C(c4ccccc4)(O1)C3(C)O2 (stereo not given)
> 100 µM: 786-0 renal | A498 renal | A549 NSCLC | ACHN renal | CAKI-1 renal | CCRF-CEM leukemia | COLO 205 colon | DLD-1 colon | DMS 114 small cell lung | DMS 273 small cell lung | EKVX NSCLC | HCC-2998 colon | HCT-116 colon | HCT-15 colon | HL-60(TB) leukemia | HOP-18 NSCLC | HOP-92 NSCLC | HT29 colon | IGROV1 ovarian | K-562 leukemia | KM12 colon | KM20L2 colon | LOX IMVI melanoma | LXFL 529 NSCLC | M14 melanoma | M19-MEL melanoma | MALME-3M melanoma | MOLT-4 leukemia | NCI-H226 lung | NCI-H23 lung | NCI-H522 lung | OVCAR-3 ovarian | OVCAR-4 ovarian | OVCAR-5 ovarian | OVCAR-8 ovarian | RPMI-8226 leukemia | RXF 393 renal | RXF-631 renal | SF-268 CNS | SF-295 CNS | SF-539 CNS | SK-MEL-2 melanoma | SK-MEL-28 melanoma | SK-MEL-5 melanoma | SK-OV-3 ovarian | SN12C renal | SNB-19 CNS | SNB-75 CNS | SNB-78 CNS | SW-620 colon | TK-10 renal | U251 CNS | UACC-257 melanoma | UACC-62 melanoma | UO-31 renal

CC(=O)NNc1nc(C)c(C(=O)/C=C/c2cccc([N+](=O)[O-])c2)s1
> 100 µM: 786-0 renal | A498 renal | A549 NSCLC | CAKI-1 renal | CCRF-CEM leukemia | COLO 205 colon | DLD-1 colon | DMS 114 small cell lung | DMS 273 small cell lung | EKVX NSCLC | HCC-2998 colon | HCT-116 colon | HCT-15 colon | HL-60(TB) leukemia | HOP-18 NSCLC | HOP-62 NSCLC | HOP-92 NSCLC | HT29 colon | IGROV1 ovarian | K-562 leukemia | KM12 colon | KM20L2 colon | LOX IMVI melanoma | LXFL 529 NSCLC | M14 melanoma | M19-MEL melanoma | MALME-3M melanoma | MOLT-4 leukemia | NCI-H226 lung | NCI-H23 lung | NCI-H460 lung | NCI-H522 lung | OVCAR-3 ovarian | OVCAR-5 ovarian | OVCAR-8 ovarian | RPMI-8226 leukemia | RXF 393 renal | RXF-631 renal | SF-268 CNS | SF-295 CNS | SF-539 CNS | SK-MEL-2 melanoma | SK-MEL-28 melanoma | SK-MEL-5 melanoma | SK-OV-3 ovarian | SN12C renal | SNB-19 CNS | SNB-78 CNS | SR leukemia | SW-620 colon | TK-10 renal | U251 CNS | UACC-257 melanoma | UACC-62 melanoma | UO-31 renal
